Laboratory results taken from US20250171437A1 (Agios Pharmaceuticals,Inc., priority 2022, published 2025).

Biological target: T1, human PAH with the R408W mutation (A375 R408W cells) (Homo sapiens, UniProt P00439, R408W)
T1 construct: expressed in transfected cells
T1 sequence (P00439 1-452 R408W): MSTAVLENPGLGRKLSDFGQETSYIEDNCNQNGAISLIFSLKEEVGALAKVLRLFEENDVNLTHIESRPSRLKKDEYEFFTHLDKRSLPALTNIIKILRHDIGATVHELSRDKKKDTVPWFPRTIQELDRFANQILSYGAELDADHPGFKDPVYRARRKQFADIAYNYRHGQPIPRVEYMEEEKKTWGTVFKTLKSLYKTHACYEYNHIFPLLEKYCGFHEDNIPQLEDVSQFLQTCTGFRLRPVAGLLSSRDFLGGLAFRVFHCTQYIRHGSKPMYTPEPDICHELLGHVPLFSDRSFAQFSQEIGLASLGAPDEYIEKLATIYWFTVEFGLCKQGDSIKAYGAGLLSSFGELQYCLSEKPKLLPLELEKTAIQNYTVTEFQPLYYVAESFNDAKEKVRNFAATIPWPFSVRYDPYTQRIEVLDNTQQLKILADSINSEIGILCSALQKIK
Test: Cell Based Phenylalanine Flux Assay
Details: A375 R408W cells; 24 hrs with compound, then 20 μM sepiapterin and 800 μM 13C9,15N-Phenylalanine for 4 hours; 13C-Tyrosine by LC-MS; average where tested multiple times
How it was run: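 Stable R408W PAH A375 cells: 24 h compound pretreatment in duplicate, then 4 h with 800 μM isotope-labelled Phe and 20 μM sepiapterin. Labelled Tyr output by LC-MS; AC50 averaged where repeated.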

Compared with `Cc1ncoc1C(=O)N1CCc2[nH]cnc2[C@@H]1c1nc2c(F)ccc(F)c2o1` [Example 808, (R)-(4-(4,7-difluorobenzo[d]oxazol-2-yl)-6,7-dihydro-1H-imidazo[4,5-c]pyridin-5(4H)-yl)(4-methyloxazol-5-yl)methanone], `O=C(c1cnco1)N1CCc2[nH]cnc2[C@H]1c1nc2cccc(F)c2o1` [Example 281, (S)-(4-(7-fluorobenzo[d]oxazol-2-yl)-6,7-dihydro-1H-imidazo[4,5-c]pyridin-5(4H)-yl)(oxazol-5-yl)methanone] is lower in AC50: 1 to 5 µM for the first, 0.5 to 1 µM for the second.

`O=C(CC1CC(F)C1)N1CCc2[nH]cnc2[C@H]1c1nc2cc(F)ccc2o1` (stereo partly drawn) [Example 59, (S)-1-(4-(5-fluorobenzo[d]oxazol-2-yl)-6,7-dihydro-1H-imidazo[4,5-c]pyridin-5(4H)-yl)-2-(3-fluorocyclobutyl)ethanone] and `O=C(CC1(O)CCC1)N1CCc2[nH]cnc2[C@H]1c1nc2cc(F)ccc2o1` [Example 55, (S)-1-(4-(5-fluorobenzo[d]oxazol-2-yl)-6,7-dihydro-1H-imidazo[4,5-c]pyridin-5(4H)-yl)-2-(1-hydroxycyclobutyl)ethanone] fall in the same range of AC50: 0.5 to 1 µM for the first, 0.5 to 1 µM for the second.

First: Cc1nc([C@@H](C)O)oc1C(=O)N1CCc2[nH]cnc2[C@@H]1c1nc2cc(F)ccc2o1 [Example 136, ((R)-4-(5-fluorobenzo[d]oxazol-2-yl)-6,7-dihydro-1H-imidazo[4,5-c]pyridin-5(4H)-yl)(2-((R)-1-hydroxyethyl)-4-methyloxazol-5-yl)methanone]
Second: CN(C)C(C)(C)c1nc(C(F)F)c(C(=O)N2CCc3[nH]cnc3[C@@H]2c2nc3cc(F)ccc3o2)o1 [Example 292, (R)-(4-(difluoromethyl)-2-(2-(dimethylamino)propan-2-yl)oxazol-5-yl)(4-(5-fluorobenzo[d]oxazol-2-yl)-6,7-dihydro-1H-imidazo[4,5-c]pyridin-5(4H)-yl)methanone]
The AC50 of the first is higher: at least 5 µM for the first, at most 0.5 µM for the second.

Compared with `Cn1cncc1-c1nc(C(F)F)c(C(=O)N2CCc3[nH]cnc3[C@@H]2c2nc3cccc(F)c3o2)o1` [Example 691, (R)-(4-(difluoromethyl)-2-(1-methyl-1H-imidazol-5-yl)oxazol-5-yl)(4-(7-fluorobenzo[d]oxazol-2-yl)-6,7-dihydro-1H-imidazo[4,5-c]pyridin-5(4H)-yl)methanone], `Cn1cc(-c2nc(C(F)F)c(C(=O)N3CCc4[nH]cnc4[C@@H]3c3nc4cc(F)ccc4o3)o2)cn1` [Example 87, (R)-(4-(difluoromethyl)-2-(1-methyl-1H-pyrazol-4-yl)oxazol-5-yl)(4-(5-fluorobenzo[d]oxazol-2-yl)-6,7-dihydro-1H-imidazo[4,5-c]pyridin-5(4H)-yl)methanone] is higher in AC50: 0.5 to 1 µM for the first, 1 to 5 µM for the second.

`O=C(c1cnn2cc(N3CCC4(CC3)CC4)ccc12)N1CCc2[nH]cnc2[C@@H]1c1nc2c(F)cccc2o1` [Example 506, (R)-(6-(6-azaspiro[2.5]octan-6-yl)pyrazolo[1,5-a]pyridin-3-yl)(4-(4-fluorobenzo[d]oxazol-2-yl)-6,7-dihydro-1H-imidazo[4,5-c]pyridin-5(4H)-yl)methanone] and `O=C(c1nnc(-c2ccccn2)o1)N1CCc2[nH]cnc2[C@@H]1c1nc2ccc(F)cc2o1` [Example 304, (R)-(4-(6-fluorobenzo[d]oxazol-2-yl)-6,7-dihydro-1H-imidazo[4,5-c]pyridin-5(4H)-yl)(5-(pyridin-2-yl)-1,3,4-oxadiazol-2-yl)methanone] fall in the same range of AC50: 1 to 5 µM for the first, 1 to 5 µM for the second.

`O=C(c1oc(COC(F)(F)F)nc1C(F)F)N1CCc2[nH]cnc2[C@H]1c1nc2cc(F)ccc2o1` [Example 115, (S)-(4-(difluoromethyl)-2-((trifluoromethoxy)methyl)oxazol-5-yl)(4-(5-fluorobenzo[d]oxazol-2-yl)-6,7-dihydro-1H-imidazo[4,5-c]pyridin-5(4H)-yl)methanone] and `CC(C)(O)c1nc(C(F)F)c(C(=O)N2CCc3[nH]cnc3[C@H]2c2nc3cc(C(F)(F)F)ccc3o2)o1` [Example 327, (S)-(4-(difluoromethyl)-2-(2-hydroxypropan-2-yl)oxazol-5-yl)(4-(5-(trifluoromethyl)benzo[d]oxazol-2-yl)-6,7-dihydro-1H-imidazo[4,5-c]pyridin-5(4H)-yl)methanone] cannot be ordered by AC50: 0.5 to 1 µM for the first, at most 0.5 µM for the second.

`O=C(c1ocnc1C(F)F)N1CCc2[nH]cnc2[C@H]1c1nc2cc(C(F)(F)F)ccc2o1` [Example 329, (S)-(4-(difluoromethyl)oxazol-5-yl)(4-(5-(trifluoromethyl)benzo[d]oxazol-2-yl)-6,7-dihydro-1H-imidazo[4,5-c]pyridin-5(4H)-yl)methanone] and `O=C(c1ocnc1C(F)(F)F)N1CCc2[nH]cnc2[C@H]1c1nc2cc(F)ccc2o1` [Example 23, (S)-(4-(5-fluorobenzo[d]oxazol-2-yl)-6,7-dihydro-1H-imidazo[4,5-c]pyridin-5(4H)-yl)(4-(trifluoromethyl)oxazol-5-yl)methanone] cannot be ordered by AC50: at most 0.5 µM for the first, at most 0.5 µM for the second.

`Cc1ccc2oc([C@H]3c4nc[nH]c4CCN3C(=O)c3ccnn3C(F)F)nc2c1` [Example 314, (R)-(1-(difluoromethyl)-1H-pyrazol-5-yl)(4-(5-methylbenzo[d]oxazol-2-yl)-6,7-dihydro-1H-imidazo[4,5-c]pyridin-5(4H)-yl)methanone] and `Cc1ccc2oc([C@@H]3c4nc[nH]c4CCN3C(=O)c3nnc(-c4ccccn4)o3)nc2c1` [Example 97, (S)-(4-(5-methylbenzo[d]oxazol-2-yl)-6,7-dihydro-1H-imidazo[4,5-c]pyridin-5(4H)-yl)(5-(pyridin-2-yl)-1,3,4-oxadiazol-2-yl)methanone] cannot be ordered by AC50: 0.5 to 1 µM for the first, at most 0.5 µM for the second.

`O=C(c1nnc(-c2ccccn2)o1)N1CCc2[nH]cnc2[C@H]1c1nc2cc(F)cc(F)c2o1` [Example 580, (S)-(4-(5,7-difluorobenzo[d]oxazol-2-yl)-6,7-dihydro-1H-imidazo[4,5-c]pyridin-5(4H)-yl)(5-(pyridin-2-yl)-1,3,4-oxadiazol-2-yl)methanone] and `Cc1ccc2nc([C@@H]3c4nc[nH]c4CCN3C(=O)c3nnc(-c4ccccn4)o3)oc2c1` [Example 101, (S)-(4-(6-methylbenzo[d]oxazol-2-yl)-6,7-dihydro-1H-imidazo[4,5-c]pyridin-5(4H)-yl)(5-(pyridin-2-yl)-1,3,4-oxadiazol-2-yl)methanone] fall in the same range of AC50: 0.5 to 1 µM for the first, 0.5 to 1 µM for the second.

`O=C(c1nnc(-c2ncccc2F)o1)N1CCc2[nH]cnc2[C@@H]1c1nc2cccc(C(F)(F)F)c2o1` [Example 839, (R)-(5-(3-fluoropyridin-2-yl)-1,3,4-oxadiazol-2-yl)(4-(7-(trifluoromethyl)benzo[d]oxazol-2-yl)-6,7-dihydro-1H-imidazo[4,5-c]pyridin-5(4H)-yl)methanone] gave an AC50 of 0.5 to 1 µM.

Same assay, conditions: A375 cells expressing R408W PAH; 24 hrs with compound, then 20 μM sepiapterin and 800 μM 13C9,15N-Phenylalanine for 4 hours; 13C-Tyrosine by LC-MS; average where tested multiple times

`O=C(c1cnn2cc(CN3CCOCC3)ccc12)N1CCc2[nH]cnc2C1c1nc2cc(F)ccc2o1` (stereo not drawn) and `O=C(c1cnn2cc(Cl)ccc12)N1CCc2[nH]cnc2C1c1nc2cc(F)ccc2o1` (stereo not drawn) cannot be ordered by AC50: at least 5 µM for the first, 1 to 5 µM for the second.

`CC(C)(O)c1nc(C(F)F)c(C(=O)N2CC(C)(C)c3[nH]cnc3C2c2nc3cc(F)ccc3o2)o1` (stereo not drawn) and `O=C(c1cnco1)N1CCc2[nH]cnc2C1c1nc2cc(F)ccc2o1` (stereo not drawn) cannot be ordered by AC50: at least 5 µM for the first, at least 5 µM for the second.

`CC(C)(O)C1CCN(c2ccc3c(C(=O)N4CCc5[nH]cnc5C4c4nc5cc(F)ccc5o4)cnn3c2)CC1` (stereo not drawn) showed an AC50 of at least 5 µM.
